Test results taken from US20240124538A1, “Modulation of Wnt5a to Treat Glaucoma” (The Regents of the University of California, priority 2017, published 2024).

Experiments:
WNT-5A = details: Shinonaga et al. 2009; cited from earlier work
Wnt5a [1] = biological target: T1, Wnt5a (Oryctolagus cuniculus, UniProt Q27Q52); assay: Rabbit model of pathogenic IOP, inhibitor delivered by eye drops; format: in vivo
T1 construct: New Zealand White rabbits receive a topical administration; from tissue; host or cells: eye of living New Zealand White rabbits
T1 sequence (Q27Q52 62-380): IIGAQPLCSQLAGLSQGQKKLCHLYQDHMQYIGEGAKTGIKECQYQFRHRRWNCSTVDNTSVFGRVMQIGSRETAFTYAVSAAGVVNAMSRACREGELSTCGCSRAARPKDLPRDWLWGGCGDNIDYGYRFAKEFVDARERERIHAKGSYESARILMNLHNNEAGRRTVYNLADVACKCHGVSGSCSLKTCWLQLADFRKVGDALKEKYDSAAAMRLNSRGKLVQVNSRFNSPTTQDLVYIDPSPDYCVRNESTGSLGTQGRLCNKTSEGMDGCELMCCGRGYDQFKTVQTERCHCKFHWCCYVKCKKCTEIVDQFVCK
Text: To assess the effect of siRNA delivered by eye drops on IOP, we developed an additional protocol based on the methods of Martinez et al. (Mol Ther. 2014 January; 22(1):81-91), wherein New Zealand White rabbits receive a topical administration of either 20 nmol/day of siRNA or phosphate-buffered saline (PBS) over a period of 4 consecutive days.

[2] = Shinonaga et al. 2009; cited from earlier work
Wnt5a [3] = biological target: T2, Wnt5a (Mus musculus, UniProt P22725); assay: Mouse model of pathogenic IOP, inhibitor delivered by eye drops; format: in vivo
T2 construct: from tissue; host or cells: eye of living mice (Schlemm's canal / anterior chamber)
T2 sequence (P22725 62-380): T1 sequence (Q27Q52 62-380)
Experimental: In one protocol subconjuctival injection of siRNA is performed as described by Yuen et al. (2014, Invest Ophthalmol Vis Sci. 2014; 55:3320-3327). Mice are randomly selected to receive subconjunctival injection of 5 uL (0.2 1g/uL) siRNA or control twice a week for 2 weeks. In a second protocol intracameral injection of siRNA is performed as described by Tam et al. (2017, Scientific Reports 7, 40717). Mice are anaesthetized by intra-peritoneal injection, and pupils are dilated. A pulled blunt-ended micro-glass needle is first used to puncture the cornea to withdraw aqueous humour Immediately after puncture, a pulled blunt-ended micro-glass needle attached to a 10 μl syringe is inserted through the puncture, and 1.5 μl of PBS containing 1 μg siRNA is administered into the anterior chamber. Contralateral eyes receive an identical injection of 1.5 μl containing the same concentration of scrambled siRNA.

For 6,7-dihydro-10alpha-hydroxy radicicol, the WNT-5A expression inhibition (WNT-5A) is given as “potent WNT-5A expression inhibitor”, the “therapy of pathogenic IOP” value (Wnt5a [1]) is given as “effective therapies for pathogenic IOP” and the toxicity [2] is given as “relatively low toxicity”. The “therapy of pathogenic IOP” value (Wnt5a [3]) was “effective therapies for pathogenic IOP”.
